# Data reported in the supplement of paper PMC10307832.
# What was measured:
# Test in all cases: relative viability (nuclei count vs DMSO), 5 days (fraction); higher = more cells survive
# [1] = compound: C[C@@H](N)c1ccc(C(=O)Nc2ccnc3[nH]ccc23)cc1 + O=C(c1cc(Cc2n[nH]c(=O)c3ccccc23)ccc1F)N1CCN(C(=O)C2CC2)CC1 [Olaparib] (partner 8 µM)
# In short: (§1)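 Cells from lung cancer lines were seeded into 1536-well plates and, one day later, dosed by pin tool. Treatments were either a single drug or a fixed dose of an anchor drug with five library-drug doses (not always all listed) in √10 steps. After 5 days, nuclei were stained in a one-step fixation (final 0.05% Triton X-100, 1% formaldehyde, 1 ug/ml Hoechst) and counted on 4× images, and relative viability is the treated-to-vehicle nuclei ratio, as the median of duplicate plates.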
# [2] = compound: O[C@H]1CC[C@H](Nc2ncc3nc(Nc4c(F)cc(F)cc4F)n([C@H]4CCOC4)c3n2)CC1 [Tanzisertib] + Cc1nc(Nc2ncc(C(=O)Nc3c(C)cccc3Cl)s2)cc(N2CCN(CCO)CC2)n1 [Dasatinib] (partner 0.075 µM)
# In short: as §1
# [3] = compound: C1CNCCC1C2=CC(=NN2)C3=CC=NC=C3 + CS(=O)(=O)CCNCc1ccc(-c2ccc3ncnc(Nc4ccc(OCc5cccc(F)c5)c(Cl)c4)c3c2)o1 [Lapatinib] (partner 2 µM)
# In short: as §1
# [4] = compound: O[C@H]1CC[C@H](Nc2ncc3nc(Nc4c(F)cc(F)cc4F)n([C@H]4CCOC4)c3n2)CC1 [Tanzisertib] + CCNC(=O)c1noc(-c2cc(C(C)C)c(O)cc2O)c1-c1ccc(CN2CCOCC2)cc1 [Luminespib] (partner 0.01 µM)
# In short: as §1
cell line,measurement,setting,value
UMC-11,relative viability,[1]; first compound 0.04 µM,0.359
same,relative viability,[1]; first compound 0.1265 µM,0.427
same,relative viability,[1]; first compound 0.4 µM,0.357
same,relative viability,[1]; first compound 1.265 µM,0.303
same,relative viability,[1]; first compound 4 µM,0.285
same,relative viability,[2]; first compound 0.08 µM,0.487
same,relative viability,[2]; first compound 0.253 µM,0.456
same,relative viability,[2]; first compound 0.8 µM,0.437
same,relative viability,[2]; first compound 2.53 µM,0.449
same,relative viability,[2]; first compound 8 µM,0.48
same,relative viability,[3]; first compound 0.08 µM,0.73
same,relative viability,[3]; first compound 0.8 µM,1.23
same,relative viability,[3]; first compound 2.53 µM,1.05
same,relative viability,[3]; first compound 8 µM,1.04
same,relative viability,[4]; first compound 0.08 µM,1.1
same,relative viability,[4]; first compound 0.253 µM,1
same,relative viability,[4]; first compound 0.8 µM,0.946
same,relative viability,[4]; first compound 2.53 µM,1.08
same,relative viability,[4]; first compound 8 µM,1.03
